Legend:
bovine cardiac myosin = bovine cardiac myosin (Bos taurus (Bovine), UniProt Q9BE39); test: Myosin inhibition assay (bcMF serum pCa 6 IC50), 10% human serum; assay type: biochemical; settings: in the presence of 10% human serum
Description: Myosin Inhibition Assay (bcMF Serum pCa 6 IC50 (μM))
Inhibition of the enzymatic activity of bovine cardiac myosin associated with the release of ADP (adenosine diphosphate) at the calcium concentrate that achieves a 50% activation of the bovine cardiac myofibril system in the presence of 10% human serum. The procedure was the same as that bovin cardiac myosin inhibition assay (bcMF pCa 6 IC50 (μM)) but with the addition of 10% human serum.

rabbit skeletal myosin = test: Myosin inhibition assay (rbskMF pCa 6 IC50); assay type: biochemical; settings: cardiac vs rabbit skeletal myofibrils
Description: Myosin inhibition assay (rbskMF pCa 6 IC50 (μM))
Inhibition of the enzymatic activity of rabbit skeletal myosin associated with the release of ADP (adenosine diphosphate) at the calcium concentrate that achieves a 50% activation of the rabbit skeletal myofibril system. The procedure was the same as that of bovin cardiac myosin inhibition assay (bcMF pCa 6 IC50 (μM)) by replacing bovine cardiac myofibril with rabbit skeletal myofibril.

[1] = system: adult rat ventricular myocytes; test: Cardiomyocyte contractility assay; assay type: cell-based; settings: 0.3 μM compound; for inhibition at 0.3 µM: Rattus norvegicus, Ventricular myocyte, fractional shortening, myocytes paced at 1 Hz, read-out: % inhibition of FS at 0.3 μM
Experimental: Cardiomyocyte Contractility Assay
Contractility of adult rat ventricular myocytes is determined by edge detection with an IonOptix contractility system. Aliquots of myocytes in Tyrode buffer (137 mM NaCl, 3.7 mM KCL, 0.5 mM MgCl2, 1.5 mM CaCl2, 4 mM HEPES, 11 mM glucose) are placed in a perfusion chamber (Series 20 RC-27NE; Warner Instruments), allowed to adhere to the coverslip, and then perfused with 37° C. Tyrode buffer. Myocytes are filed stimulated at 1 Hz and 10V. Only myocytes with clear striations, quiescent prior to pacing, with a cell length of 120-180 microns, a basal fractional shortening equal to 3-8% of the cell length, and a contraction velocity greater than 100 microns per second are used for contractility experiments. To determine the response to compounds (at 0.3 μM concentration), myocytes are first perfused for 60 seconds with Tyrodes buffer followed by 5 min of compound and a 140 second washout with Tyrodes buffer. Data is continuously recorded using IonOptix software. Contractility data is analyzed using Ionwizard software (IonOptix). For each cell, 10-20 contractility transients were averaged and compared under basal (no compound) and compound-treated conditions. Compound activity is measured by effects on fractional shortening (FS), where fractional shortening is the ratio of the peak length of the cell at contraction divided by the basal cell length normalized to 100% for an untreated cell. The % inhibition measurement is calculated by subtracting the FS value from 100%.

[2] = Reactive metabolite identification (glutathione adducts); assay type: in vitro ADME, human; settings: for % GSH-adduct (+NADPH, +GSH) relative to parent (−NADPH, −GSH): human liver microsomes, 30 μM, 60 min
Experimental: Reactive Metabolite Identification
In vitro determination of reactive metabolite formation for small molecules by detection of glutathione adducts formed in vitro in incubations with human liver microsomes fortified with NADPH and glutathione.
Methods: The metabolism of small molecules (30 μM) for glutathione adduct formation was assessed in incubations (200 μL volume, […], 60 min incubation time) with liver microsomes from human (1 mg/mL protein) conducted in potassium phosphate buffer (0.1 M, pH 7.4) for 1 h at 37° C. in a 96-well plate (2 mL well volume) and were performed in the absence of NADPH (used as a negative control) and in the presence of NADPH (1 mM) and glutathione (GSH, 10 mM). Incubations with liver microsomes were performed in a shaking water bath incubator with slow horizontal shaking (30 rpm). To obtain 30 μM incubation concentration of a compound, a 3 mM substrate stock solution in DMSO was used. Final incubation mixtures contained 148 μL of potassium phosphate buffer, 10 μL of liver microsome solution (20 mg protein/mL), 2 μL of the 3 mM substrate solution and where incubations were initiated by the addition of 40 μL of NADPH solution (5 mM dissolved in potassium phosphate buffer). Non-NADPH containing incubations were supplemented with 40 μL of potassium phosphate buffer. Post-incubation, reactions were terminated by adding an equal volume of acetonitrile containing 20 nM carbamazepine internal standard and 3% formic acid. Quenched samples then were centrifuged (4,600 rpm, 4° C., 10-min) after which the supernatants were transferred to a 96-well LC-MS sample analysis plate and diluted with one volume equivalent of HPLC-grade water, and then heat sealed with aluminum foil prior to analysis by liquid chromatography/mass spectrometry (LC-MS/MS).
Analyte identification: The LC-MS/MS detection (with in-line UV detection at 280 nm) of test compounds and potential GSH-adducts was focused on extracting selected ion chromatographic profiles using the protonated molecular ion MH^+ m/z for parent to 4 decimal places, and corresponding protonated molecular ions of predicted GSH-adduct metabolites (m/z MH^+ parent+305.0681 amu) using Xcalibur software (version 2.1.0, Thermo Fisher Scientific, Waltham, MA). Relative GSH-adduct abundance in vitro in liver microsome extracts was assessed using the LC/UV absorbance at 280 nm peak area ratio obtained by using Xcalibur software (version 2.1.0) between the detected GSH-adducts from NADPH- and GSH-fortified incubation extracts and the corresponding LC/UV peak area of the parent compound from minus NADPH containing incubation extracts. The extent of GSH-adduct formation was determined by LC-MS/MS analysis with in-line LC-UV detection at 280 nm by dividing the glutathione-adduct LC/UV peak area by the LC/UV peak area of the corresponding parent HCM-1 NG analog determined from analysis of control (-NAPDH, -GSH) incubations extracts.
Materials: Pooled male human (HLM, 50 donors) liver microsomes were obtained from Bioreclamation IVT (Baltimore, MD). Glutathione (GSH) and NADPH were purchased from Sigma Chemical Co. (St. Louis, MO). All solvents used for liquid chromatography-tandem mass spectrometry (LC-MS/MS) analyses were of chromatographic grade.
LC-MS Conditions: Extracts from incubations with liver microsomes and hepatocytes were characterized by LC-MS and LC-MS/MS on a Thermo Electron LTQ Orbitrap XL mass spectrometer coupled with a Dionex UltiMate 3000 UHPLC containing in-line diode array detection and an OAS-3300TXRS Autosampler (40 μL injection volume). Electrospray ionization (ESI) was employed in the positive ion mode with the needle potential held at 5.01 kV, a sheath flow rate of 35.02, aux flow rate of 9.99, a current of 2.6 uA, a capillary temperature of 325° C., and a capillary voltage of 15.99. Vacuum conditions used were an ion gauge pressure used was 2.33×10^−5 Torr and a convection gauge pressure of 0.90 Torr. […]

Sequence of bovine cardiac myosin (Q9BE39 whole entry): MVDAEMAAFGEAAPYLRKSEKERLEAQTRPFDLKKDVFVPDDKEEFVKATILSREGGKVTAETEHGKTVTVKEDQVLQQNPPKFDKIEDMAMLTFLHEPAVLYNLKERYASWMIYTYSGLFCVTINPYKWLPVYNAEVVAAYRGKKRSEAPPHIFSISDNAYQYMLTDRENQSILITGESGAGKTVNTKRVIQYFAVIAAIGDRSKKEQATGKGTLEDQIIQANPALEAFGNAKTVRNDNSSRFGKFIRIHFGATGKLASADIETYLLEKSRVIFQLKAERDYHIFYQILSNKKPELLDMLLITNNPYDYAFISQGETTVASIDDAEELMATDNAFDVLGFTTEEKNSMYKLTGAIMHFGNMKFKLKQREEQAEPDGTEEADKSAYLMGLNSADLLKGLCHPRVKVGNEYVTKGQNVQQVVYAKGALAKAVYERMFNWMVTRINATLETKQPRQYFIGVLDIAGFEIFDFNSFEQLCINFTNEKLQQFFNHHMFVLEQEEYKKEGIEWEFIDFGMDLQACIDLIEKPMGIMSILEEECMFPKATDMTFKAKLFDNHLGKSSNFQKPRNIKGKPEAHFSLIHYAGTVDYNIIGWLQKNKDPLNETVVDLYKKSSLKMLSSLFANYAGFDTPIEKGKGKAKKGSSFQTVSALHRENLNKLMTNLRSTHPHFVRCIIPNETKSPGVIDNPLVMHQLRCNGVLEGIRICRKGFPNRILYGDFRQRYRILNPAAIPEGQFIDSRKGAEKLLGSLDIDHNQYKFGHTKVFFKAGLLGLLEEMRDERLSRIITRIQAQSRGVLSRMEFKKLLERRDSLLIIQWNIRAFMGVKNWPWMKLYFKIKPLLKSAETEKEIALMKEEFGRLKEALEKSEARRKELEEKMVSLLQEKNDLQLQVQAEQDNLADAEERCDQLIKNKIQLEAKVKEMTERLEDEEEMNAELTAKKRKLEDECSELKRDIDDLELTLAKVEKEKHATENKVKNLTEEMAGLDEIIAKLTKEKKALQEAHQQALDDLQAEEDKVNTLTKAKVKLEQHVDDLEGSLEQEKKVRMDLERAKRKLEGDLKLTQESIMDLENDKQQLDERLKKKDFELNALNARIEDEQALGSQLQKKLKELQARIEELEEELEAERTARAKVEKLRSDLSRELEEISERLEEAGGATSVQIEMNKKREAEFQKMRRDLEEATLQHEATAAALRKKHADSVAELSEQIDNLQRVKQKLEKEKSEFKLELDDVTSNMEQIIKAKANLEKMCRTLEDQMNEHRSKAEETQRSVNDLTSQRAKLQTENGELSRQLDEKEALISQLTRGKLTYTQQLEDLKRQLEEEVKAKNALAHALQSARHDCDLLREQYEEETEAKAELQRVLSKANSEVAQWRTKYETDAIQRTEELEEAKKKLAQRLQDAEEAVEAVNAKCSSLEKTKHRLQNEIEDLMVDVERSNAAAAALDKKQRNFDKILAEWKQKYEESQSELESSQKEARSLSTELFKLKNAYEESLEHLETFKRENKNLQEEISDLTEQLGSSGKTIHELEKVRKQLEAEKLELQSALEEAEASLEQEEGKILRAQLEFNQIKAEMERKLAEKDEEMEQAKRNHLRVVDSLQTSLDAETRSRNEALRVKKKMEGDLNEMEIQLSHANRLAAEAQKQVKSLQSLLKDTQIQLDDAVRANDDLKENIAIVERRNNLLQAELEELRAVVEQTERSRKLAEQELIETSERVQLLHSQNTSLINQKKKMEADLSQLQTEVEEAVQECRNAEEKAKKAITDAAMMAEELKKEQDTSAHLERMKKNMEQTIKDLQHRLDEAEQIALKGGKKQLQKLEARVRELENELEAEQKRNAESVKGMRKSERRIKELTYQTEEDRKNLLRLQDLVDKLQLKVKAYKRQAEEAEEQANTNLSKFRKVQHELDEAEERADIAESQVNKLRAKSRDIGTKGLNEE
Sequence of bovine cardiac myosin (P85100 whole entry partner): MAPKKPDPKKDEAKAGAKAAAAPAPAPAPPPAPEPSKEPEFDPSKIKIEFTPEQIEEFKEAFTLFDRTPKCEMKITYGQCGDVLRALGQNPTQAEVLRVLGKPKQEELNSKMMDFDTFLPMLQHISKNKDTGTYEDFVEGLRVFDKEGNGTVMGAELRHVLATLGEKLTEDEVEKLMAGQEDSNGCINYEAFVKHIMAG
Sequence of bovine cardiac myosin (Q3SZE5 whole entry partner): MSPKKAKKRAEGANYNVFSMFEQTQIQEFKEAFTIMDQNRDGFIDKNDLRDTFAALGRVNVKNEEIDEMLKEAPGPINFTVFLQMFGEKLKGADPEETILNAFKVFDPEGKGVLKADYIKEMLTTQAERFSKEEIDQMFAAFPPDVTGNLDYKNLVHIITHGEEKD

For `Cc1ccc(F)c([C@@H]2Nc3[nH]c(=O)n(C4CCOCC4)c(=O)c3C[C@@H]2F)c1` [Compound 3, (6S,7S)-6-fluoro-7-(2-fluoro-5-methylphenyl)-3-(tetrahydro-2H-pyran-4-yl)-5,6,7,8-tetrahydropyrido[2,3-d]pyrimidine-2, 4 (1H, 3H)-dione], the IC50 (bovine cardiac myosin) was 1560 nM, the “Cardiac selectivity ratio vs rbskMF pCa 6 IC50” value (rabbit skeletal myosin) was 4.51 and the inhibition at 0.3 µM [1] was > 66%. For the same compound, the “% GSH-adduct (+NADPH, +GSH) relative to parent (−NADPH, −GSH)” value [2] was “Not Detected”, the “Glutathione Adduct Detection in Human Liver Microsome Incubations (single measurement)” value ([2]; single measurement) was “Not Detected” and the “Glutathione Adduct Detection in Human Liver Microsome Incubations, Average (triple measurements)” value ([2]; triple measurements) was “Not Detected”.
In the case of `O=c1[nH]c2c(c(=O)n1C1CCOCC1)CC(F)(F)[C@H](c1cccc(F)c1)N2` [Compound C-1, (S)-6,6-difluoro-7-(3-fluorophenyl)-3-(tetrahydro-2H-pyran-4-yl)-5,6,7,8-tetrahydropyrido[2,3-d]pyrimidine-2,4(1H,3H)-dione, reference compound], the IC50 (bovine cardiac myosin) is reported as 3490 nM, the “Cardiac selectivity ratio vs rbskMF pCa 6 IC50” value (rabbit skeletal myosin) is reported as 5.48 and the “observation in cardiomyocyte contractility assay” value [1] is reported as “Early after depolarization or EAD”. For the same compound, the inhibition at 0.3 µM [1] was 33 to 66% and the “% GSH-adduct (+NADPH, +GSH) relative to parent (−NADPH, −GSH)” value [2] was “Not Detected”.

Reference: patent US20250282779A1, “SUBSTITUTED 5,6,7,8-TETRAHYDROPYRIDO[2,3-D]PYRIMIDINE-2,4-DIONES FOR TREATING CARDIAC DISEASES” (MYOKARDIA, INC., priority 2018, published 2025)
